Assay results taken from ChEMBL document CHEMBL1158170, “Synthesis, characterization, antioxidant activity and DNA-binding studies of two rare earth(III) complexes with naringenin-2-hydroxy benzoyl hydrazone ligand” (Eur J Med Chem, 2008).

Key:
[1] = Antioxidant activity at pH 7.4 by hydroxyl radical scavenging assay; assay type: functional
[2] = test system: DNA; assay: Binding affinity to calf thymus DNA by electronic absorption spectroscopy; assay type: nucleic-acid assay; details: Bos taurus
[3] = test system: DNA; assay: Binding affinity to calf thymus DNA by fluorescence spectroscopy; assay type: nucleic-acid assay; details: Bos taurus

Compound | IC50 [1] | Kb [2] | Kq [3]
OC[C@@H](O)[C@@H](O)[C@H](O)[C@H](O)CO [MANNITOL] | 9.6 mM | – | –
O=C(N/N=C1\CC(c2ccc(O)cc2)Oc2cc(O)cc(O)c21)c1ccccc1O (stereo not drawn) | – | 1.6 ×10⁴ /M | 0.93 ×10⁴ /M
